Laboratory results published in patent US10160762B2, “6-alkyl dihydropyrazolopyrimidinone compounds as PDE2 inhibitors” (Merck Sharp & Dohme Corp., priority 2015, dated 2018).

Molecular target: T1, human PDE2A1 (Homo sapiens, UniProt O00408)
T1 construct: GST; purchased BPS Bioscience (San Diego, Calif.) 60020; host or cells: insect cells
Assay: IMAP FP PDE assay, human PDE2A1
Type: biochemical
Settings: Lab B; read-out: Human PDE2 Ki (nM) Lab B
Method in brief: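 FP (IMAP) read after 60 min room-temperature reaction of insect-cell GST-human PDE2A1 with 50 nM FAM-cAMP plus 1000 nM cGMP (pH 7.2 Tris, Mg2+, DTT). Compounds titrated 3-fold over ten points. Apparent Ki derived assuming KM of 10,000 nM; enzyme at 20% substrate turnover.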

T1 sequence (O00408 1-920 isoform O00408-2): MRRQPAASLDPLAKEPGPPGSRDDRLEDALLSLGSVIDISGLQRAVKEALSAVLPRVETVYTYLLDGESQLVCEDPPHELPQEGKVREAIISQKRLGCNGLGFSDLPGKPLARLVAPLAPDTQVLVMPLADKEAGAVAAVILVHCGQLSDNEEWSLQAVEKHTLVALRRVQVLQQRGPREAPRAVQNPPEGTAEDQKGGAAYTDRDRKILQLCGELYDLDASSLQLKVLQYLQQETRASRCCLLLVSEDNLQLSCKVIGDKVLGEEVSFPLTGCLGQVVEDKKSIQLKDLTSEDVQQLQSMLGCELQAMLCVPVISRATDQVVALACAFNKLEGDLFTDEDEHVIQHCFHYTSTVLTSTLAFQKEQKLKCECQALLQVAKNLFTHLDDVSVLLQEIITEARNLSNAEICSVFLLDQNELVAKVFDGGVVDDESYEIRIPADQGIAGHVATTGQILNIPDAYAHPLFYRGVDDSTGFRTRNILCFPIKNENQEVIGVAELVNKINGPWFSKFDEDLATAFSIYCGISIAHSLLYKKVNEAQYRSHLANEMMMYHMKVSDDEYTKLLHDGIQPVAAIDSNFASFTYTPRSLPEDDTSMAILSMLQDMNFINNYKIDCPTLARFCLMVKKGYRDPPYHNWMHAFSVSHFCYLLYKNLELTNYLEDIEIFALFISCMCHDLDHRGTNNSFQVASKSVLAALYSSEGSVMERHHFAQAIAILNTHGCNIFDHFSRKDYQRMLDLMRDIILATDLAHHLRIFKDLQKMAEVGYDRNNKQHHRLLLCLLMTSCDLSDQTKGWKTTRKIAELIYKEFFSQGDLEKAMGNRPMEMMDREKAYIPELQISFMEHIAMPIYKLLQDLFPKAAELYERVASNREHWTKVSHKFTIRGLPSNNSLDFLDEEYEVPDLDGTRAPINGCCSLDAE

Compound | Ki
CC(c1ccc(C(F)(F)F)cc1)n1nc(CO)c2c(=O)[nH]c(C3CC3)nc21 (single isomer, unassigned) [Example 299, (R)- or (S)-6-Cyclopropyl-3-(hydroxymethyl)-1-{1-[4-(trifluoromethyl)phenyl]ethyl}-1,5-dihydro-4H-pyrazolo[3,4-d]pyrimidin-4-one] | 157 nM
Cc1nc2c(c(CO)nn2C(C)c2ccc(Cl)s2)c(=O)[nH]1 (single isomer, unassigned) [Example 153, (R)- or (S)-1-(1-(5-Chlorothiophen-2-yl)ethyl)-3-(hydroxymethyl)-6-methyl-1H-pyrazolo[3,4-d]pyrimidin-4(5H)-one] | > 2960 nM
CC(c1ccc(C(F)(F)F)cc1)n1nc(CO)c2c(=O)[nH]c(CC3CCCC3)nc21 (single isomer, unassigned) [Example 308, (S)- or (R)-6-(Cyclopentyl-methyl)-3-(hydroxymethyl)-1-(1-(4-(trifluoromethyl)phenyl)ethyl)-1,5-dihydro-4H-pyrazolo[3,4-d]pyrimidin-4-one] | 329 nM
Cc1nc2c(c(CO)nn2C(C)c2ccc(C(F)(F)F)c(C)c2)c(=O)[nH]1 (single isomer, unassigned) [Example 107, (S)- or (R)-3-(Hydroxymethyl)-6-methyl-1-(1-(3-methyl-4-(trifluoromethyl)phenyl)ethyl)-1H-pyrazolo[3,4-d]pyrimidin-4(5H)-one] | 4.5 nM
CNC(=O)c1nn(C(C)c2ccc(C(F)(F)F)cc2)c2nc(C)[nH]c(=O)c12 (single isomer, unassigned) [Example 265] | 375 nM
CC(c1ccc(C(F)(F)F)cc1)n1nc(CO)c2c(=O)[nH]c(C3CC3)nc21 (single isomer, unassigned) [Example 300, (S)- or (R)-6-Cyclopropyl-3-(hydroxymethyl)-1-{1-[4-(trifluoromethyl)phenyl]ethyl}-1,5-dihydro-4H-pyrazolo[3,4-d]pyrimidin-4-one] | 2.8 nM
Cc1nc2c(c(C(F)F)nn2C(c2ccc(C(F)(F)F)cc2)C(C)C)c(=O)[nH]1 (single isomer, unassigned) [Example 171, (R)- or (S)-3-(Difluoromethyl)-6-methyl-1-(2-methyl-1-(4-(trifluoromethyl)phenyl)propyl)-1H-pyrazolo[3,4-d] pyrimidin-4(5H)-one] | 43 nM
Cc1nc2c(c(OCC(F)(F)F)nn2C(C)c2ccc(C(F)(F)F)cc2)c(=O)[nH]1 (single isomer, unassigned) [Example 288] | 350 nM
Cc1nc2c(c(C3CCCO3)nn2C(C)c2ccc(C(F)(F)F)cc2)c(=O)[nH]1 (single isomer, unassigned) [Example 73, (S, S)- or (S, R)- or (R, R)- or (R, S)-6-Methyl-3-(-tetrahydrofuran-2-yl)-1-(-l-(4-(trifluoromethyl)phenyl)ethyl)-1H-pyrazolo[3,4-d]pyrimidin-4(5H)-one] | 423 nM
Cc1nc2c(c(OCC(F)(F)F)nn2C(C)c2ccc(C(F)(F)F)cc2)c(=O)[nH]1 (single isomer, unassigned) [Example 287] | 375 nM
CC(C)Cc1nc2c(c(CO)nn2C(C)c2ccc(C(F)(F)F)cc2)c(=O)[nH]1 (single isomer, unassigned) [Example 305, (R)- or (S)-3-(Hydroxy-methyl)-6-isobutyl-1-(1-(4-(trifluoromethyl)phenyl)ethyl)-1,5-dihydro-4H-pyrazolo-[3,4-d]pyrimidin-4-one] | 17 nM
CC(c1ccc(C(F)(F)F)cc1)n1nc(CO)c2c(=O)[nH]c(C3CCCO3)nc21 (single isomer, unassigned) [Example 311, (R,R)- or (S,S)- or (R,S)- or (S,R)-3-(Hydroxymethyl)-6-(tetrahydrofuran-2-yl)-1-(1-(4-(trifluoromethyl)-phenyl)ethyl)-1,5-dihydro-4H-pyrazolo[3,4-d]pyrimidin-4-one] | ~1210 nM
